# Reference: patent US20250340551A1, “SMALL MOLECULE MODULATORS OF STAT6” (Gilead Sciences, Inc., priority 2024, published 2025)
# Test system: Eotaxin-3 (CCL26) release in human whole blood stimulated with IL-4
# Assay: Human whole blood eotaxin-3 assay (IL-4 stimulated, Eotaxin-3 release)
# Assay type: cell-based
# Details: Homo sapiens; for EC50: Hec50, 48 h
# Description: This was a human whole blood assay using recombinant human Interleukin 4 to stimulate the blood and measuring the ability of the test compounds to inhibit eotaxin-3 release. The biological activities of the test compounds have been tested in human whole blood stimulated with IL-4 measuring Eotaxin-3 release. The test compounds were added to 384 well clear flat-bottom plate in a 4-fold serial dilution in triplicates using a liquid handler. Human whole blood stabilized in lithium-heparin tubes was added in a volume of 65 μL per well, resulting in a final DMSO concentration of 0.5%. The plate is incubated for 2 h at 37° C. under 5% CO2/95% air. Subsequently, 5 μL of recombinant human IL-4 (R&D Systems, cat #204-ILB) was added to the wells to a final concentration of 400 pM. The plate was incubated for 48 h at 37° C. under 5% CO2/95% air. The plate was spun down for 10 minutes at 500×g and 20 μL supernatant was harvested and transferred to a 384 well v-bottom plate using a liquid handler and stored at −20° C. until further analysis. 10 μL supernatant was used to measure the level of Eotaxin-3 (CCL26) using Human Eotaxin-3 MSD kit from Mesocsale (Cat #K251UEK-4). The assay was performed according to the manufacture instructions.
# The data from the human whole blood eotaxin-3 assay is shown below for Examples 1u2, 1x1, 1af26, and 1af36 (where the effect in % is plotted against the test concentration in M on a log-scale).
Structure (SMILES),EC50 [nM],Emax (48 h) [%]
"[2H]C([2H])([2H])N(C(=O)c1ccc(C2=CCN([C@@H](C)c3cc4c(-c5ncc(N)cc5F)ccnc4n3C)CC2)cc1)C([2H])([2H])[2H] [Example 1af51, (S)-4-(1-(1-(4-(5-Amino-3-fluoropyridin-2-yl)-1-methyl-1H-pyrrolo[2,3-b]pyridin-2-yl)ethyl)-1,2,3,6-tetrahydropyridin-4-yl)-N,N-bis(methyl-d3)benzamide]",1670,–
"[2H]C([2H])([2H])N(C(=O)c1cnc(C2=CCN(Cc3cc4c(-c5ccc(N)nc5C#N)ccnc4n3C)CC2)nc1)C([2H])([2H])[2H] [Example 1z15, 2-(1-((4-(6-amino-2-cyanopyridin-3-yl)-1-methyl-1H-pyrrolo[2,3-b]pyridin-2-yl)methyl)-1,2,3,6-tetrahydropyridin-4-yl)-N,N-bis(methyl-d3)pyrimidine-5-carboxamide]",–,< 20
"[2H]C([2H])([2H])N(C(=O)c1ccc(C2=CCN([C@@H](C)c3cc4c(-c5ccc(N)c(F)n5)ccnc4n3C)CC2)cc1)C([2H])([2H])[2H] [Example 1af54, (S)-4-(1-(1-(4-(5-Amino-6-fluoropyridin-2-yl)-1-methyl-1H-pyrrolo[2,3-b]pyridin-2-yl)ethyl)-1,2,3,6-tetrahydropyridin-4-yl)-N,N-bis(methyl-d3)benzamide]",534,–
"Cc1cc(C(=O)N(C)C)ccc1C1=CCN(Cc2cc3c(-c4ccc(N)nn4)ccnc3n2C)CC1 [Example 1af76, 4-(1-((4-(6-Aminopyridazin-3-yl)-1-methyl-1H-pyrrolo[2,3-b]pyridin-2-yl)methyl)-1,2,3,6-tetrahydropyridin-4-yl)-N,N,3-trimethylbenzamide]",308,–
"[2H]C([2H])([2H])N(C(=O)c1ccc(C2CCN([C@H](C)c3cc4c(-c5ccc(N)cn5)ccnc4n3C)CC2)c(C)c1)C([2H])([2H])[2H] [Example 1af42, (R)-4-(1-(1-(4-(5-amino-pyridin-2-yl)-1-methyl-1H-pyrrolo[2,3-b]pyridin-2-yl)ethyl)piperidin-4-yl)-3-methyl-N,N-bis(methyl-d3)benzamide]",1400,–

# Continued, in another order:
EC50 [nM],Structure (SMILES),Emax (48 h) [%]
97.3,"CN(C)C(=O)c1cc(F)c(C2=CCN(Cc3cc4c(-c5ccc(N)nc5C#N)ccnc4n3C)CC2)c(F)c1 [Example 1z42, 4-(1-((4-(6-amino-2-cyanopyridin-3-yl)-1-methyl-1H-pyrrolo[2,3-b]pyridin-2-yl)methyl)-1,2,3,6-tetrahydropyridin-4-yl)-3,5-difluoro-N,N-dimethylbenzamide]",–
335,"CN(C)C(=O)c1cc(F)c(C2=CCN(Cc3cc4c(-c5ccc(N)nc5)ccnc4n3C)CC2)c(F)c1 [Example 1z16, 4-(1-((4-(6-aminopyridin-3-yl)-1-methyl-1H-pyrrolo[2,3-b]pyridin-2-yl)methyl)-1,2,3,6-tetrahydropyridin-4-yl)-3,5-difluoro-N,N-dimethylbenzamide]",–
12.9,"CNc1ccc(-c2ccnc3c2cc([C@@H](C)N2CC=C(c4c(C)cc(C(=O)N(C)C)cc4F)CC2)n3C)cn1 [Example 1z38, (R)-3-fluoro-N,N,5-trimethyl-4-(1-(1-(1-methyl-4-(6-(methyl-amino)pyridin-3-yl)-1H-pyrrolo[2,3-b]pyridin-2-yl)ethyl)-1,2,3,6-tetrahydropyridin-4-yl)benzamide]",–
21.6,"Cc1cc(C(=O)N(C)C)cc(F)c1C1=CCN(C(C)c2cc3c(-c4ccc(N)nc4)ccnc3n2C)CC1 (stereo not shown) [Example 1z28, 4-(1-(1-(4-(6-aminopyridin-3-yl)-1-methyl-1H-pyrrolo[2,3-b]pyridin-2-yl)ethyl)-1,2,3,6-tetrahydropyridin-4-yl)-3-fluoro-N,N,5-trimethylbenzamide]",–
798,"CN(C)C(=O)c1ccc(C2=CCN(Cc3cc4c(-c5ccc(N)nc5)ccnc4n3C)CC2)c(OC(F)(F)F)c1 [Example 1z45, 4-(1-((4-(6-aminopyridin-3-yl)-1-methyl-1H-pyrrolo[2,3-b]pyridin-2-yl)methyl)-1,2,3,6-tetrahydropyridin-4-yl)-N,N-dimethyl-3-(trifluoromethoxy)benzamide]",–
